This note sets out measurements from US20230086703A1, “N-(4-(5-chloropyridin-3-yl)phenyl)-2-(2-(cyclopropanesulfonamido)pyrimidin-4-yl) butanamide derivatives and related compounds as human CTPS1 inhibitors for the treatment of proliferative diseases” (Step Pharma S.A.S., priority 2019, published 2023).

The target in the test is T1, human CTPS1 (Homo sapiens, UniProt P17812).
T1 construct: FLAG (with GG linker); His8 (with GG linker); purchased Proteros biostructures GmbH
T1 sequence (P17812 1-591): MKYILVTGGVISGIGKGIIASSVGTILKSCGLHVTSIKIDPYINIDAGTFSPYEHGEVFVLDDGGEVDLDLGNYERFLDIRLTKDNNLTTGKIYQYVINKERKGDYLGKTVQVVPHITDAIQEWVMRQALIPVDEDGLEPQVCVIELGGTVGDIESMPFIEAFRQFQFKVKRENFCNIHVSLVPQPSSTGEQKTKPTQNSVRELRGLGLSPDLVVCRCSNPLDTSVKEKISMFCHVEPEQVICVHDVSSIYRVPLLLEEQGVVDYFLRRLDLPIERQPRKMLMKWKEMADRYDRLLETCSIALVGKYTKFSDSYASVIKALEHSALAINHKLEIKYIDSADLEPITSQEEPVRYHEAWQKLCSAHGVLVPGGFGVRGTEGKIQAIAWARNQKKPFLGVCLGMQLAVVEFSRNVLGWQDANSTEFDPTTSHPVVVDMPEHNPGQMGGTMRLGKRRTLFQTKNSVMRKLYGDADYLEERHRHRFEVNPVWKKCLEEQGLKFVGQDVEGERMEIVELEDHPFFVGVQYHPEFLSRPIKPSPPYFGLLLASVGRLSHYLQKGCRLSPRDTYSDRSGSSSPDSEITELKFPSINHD
In words: RapidFire/MS-based enzyme selectivity assay (human CTPS1 versus CTPS2), CTPS1 isoform. The test is classed as biochemical. The essentials: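 Full-length C-terminal FLAG-His-tagged CTPS1 (1-591) was preincubated 10 min at 25 °C with compound in HEPES pH 8.0 buffer with MgCl2, KCl, DTT and Tween-20. Reactions were started with a 2× mix of ATP 0.3 mM, UTP 0.2 mM, GTP 0.07 mM and L-glutamine 0.1 mM, and run in the linear phase at 25 °C. IC50 comes from the RapidFire-MS ratio of CTP to 13C9-15N3-CTP.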

[1] abbreviates: RapidFire/MS IC50 values of CTPS1 and CTPS2, Table 15.
Setting [2] is: Table 16, human CTPS1 over human CTPS2, RapidFire/MS IC50 values.
Where [3] appears, read: RapidFire/MS IC50 values of CTPS1 and CTPS2, Table 17.

Molecules are shown by their SMILES.

As for `CC(C)(C(=O)Nc1ccc(-c2cccnc2)cc1)c1ccnc(NS(=O)(=O)C2CC2)n1` [P59, 2-(2-(cyclopropanesulfonamido)pyrimidin-4-yl)-2-methyl-N-(4-(pyridin-3-yl)phenyl)propanamide], the “Selectivity (fold selectivity between CTPS1 and CTPS2)” value under setting [1] is given as “+ (2-30 fold (+))”.
In the case of `CCOc1cncc(-c2ccc(C(=O)NC(C)(C)c3csc(NS(=O)(=O)C4CC4)n3)c(OC)c2)n1` [R7, N-(2-(2-(cyclopropanesulfonamido)thiazol-4-yl)propan-2-yl)-4-(6-ethoxypyrazin-2-yl)-2-methoxybenzamide], under setting [2], the “Selectivity (fold selectivity between CTPS1 and CTPS2)” value is recorded as “++ (>30-60 fold (++))”.
`CCOc1cncc(-c2ccc(NC(=O)C(C)(C)c3nc(NS(=O)(=O)C4CC4)ncc3F)cc2)n1` [P68, 2-(2-(cyclopropanesulfonamido)-5-fluropyrimidin-4-yl)-N-(4-(9-ethoxypyrazin-2-yl)phenyl)-2-methylpropanamide]: under setting [1], the “Selectivity (fold selectivity between CTPS1 and CTPS2)” value is “++ (>30-60 fold (++))”.
Same read-out and setting: with `CCOc1cncc(-c2ccc(NC(=O)C(C)(C)c3ccnc(NS(=O)(=O)C4CC4)n3)c(F)c2)n1` [P38, 2-(2-(cyclopropanesulfonamido)pyrimidin-4-yl)-N-(4-(6-ethoxypyrazin-2-yl)-2-fluorophenyl)-2-methylpropanamide] the entry was “+ (2-30 fold (+))”.
For `CCOc1cncc(-c2ccc(C(=O)NC(C)(C)c3nc(NS(=O)(=O)C4CC4)sc3Cl)c(F)c2)n1` [R75, N-(2-(5-chloro-2-(cycloprop-anesulfonamido)thiazol-4-yl)propan-2-yl)-4-(6-ethoxypyrazin-2-yl)-2-fluorobenzamide], under setting [2], the “Selectivity (fold selectivity between CTPS1 and CTPS2)” value is “+++ (>60 fold (+++))”.
Consider `CC(C)(C(=O)Nc1ccc(-c2cncc(C3CC3)n2)cn1)c1ccnc(NS(=O)(=O)C2CC2)n1` [P125, 2-(2-(cyclopropanesulfonamido)pyrimidin-4-yl)-N-(5-(6-cyclopropylpyrazin-2-yl)pyridin-2-yl)-2-methylpropanamide], for which the “Selectivity (fold selectivity between CTPS1 and CTPS2)” value under setting [1] is “++ (>30-60 fold (++))”.
Still for that read-out and setting: with `CCOc1cncc(-c2ccc(NC(=O)C3(c4ccnc(NS(=O)(=O)C5CC5)n4)CCOCC3)c(F)c2)n1` [P143, 4-(2-(cyclopropanesulfonamido)pyrimidin-4-yl)-N-(4-(6-ethoxypyrazin-2-yl)-2-fluorophenyl)tetrahydro-2H-pyran-4-carboxamide] the entry was “+++ (>60 fold (+++))”.
As for `CCOc1cncc(-c2ccc(NC(=O)C3(c4ccnc(NS(=O)(=O)C5CC5)n4)CCC4(CC3)OCCO4)nc2)n1` [P244, 8-(2-(cydopropanesulfonamido)pyrimidin-4-yl)-N-(5-(6-ethoxypyrazin-2-yl)pyridin-2-yl)-1,4-dioxaspiro[4.5]decane-8-carboxamide], the “Selectivity (fold selectivity between CTPS1 and CTPS2)” value under setting [3] was “+++ (>60 fold (+++))”.
With `CCOc1cncc(-c2ccc(C(=O)NC3(c4csc(NS(=O)(=O)C5CC5)n4)CC3)nc2)n1` [R80, N-(1-(2-(cyclopropanesulfon-amido)thiazol-4-yl)cyclo-propyl)-5-(6-ethoxypyrazin-2-yl)picolinamide], the “Selectivity (fold selectivity between CTPS1 and CTPS2)” value under setting [2] was “+++ (>60 fold (+++))”.
In the case of `CCOc1cncc(-c2ccc(NC(=O)C(CC)c3cccc(NS(=O)(=O)C4CC4)n3)nc2)n1` (centres unmarked) [P188, 2-(6-(cyclopropanesulfonamido)pyridin-2-yl)-N-(5-(6-ethoxypyrazin-2-yl)pyridin-2-yl)butanamide], the “Selectivity (fold selectivity between CTPS1 and CTPS2)” value under setting [1] is given as “++ (>30-60 fold (++))”.
On the same count and under the same terms, with `CCOc1cncc(-c2ccc(NC(=O)C(C)(C)c3ccnc(NS(=O)(=O)C4CC4)n3)cc2)n1` [P65, 2-(2-(cyclopropanesulfonamido)pyrimidin-4-yl)-N-(4-(6-ethoxypyrazin-2-yl)phenyl)-2-methylpropanamide] the entry was “++ (>30-60 fold (++))”; with `CCOc1cncc(-c2ccc(NC(=O)C(C)(C)c3nc(NS(=O)(=O)C4CC4)ncc3C)cc2)n1` [P70, 2-(2-(cyclopropanesulfonamido)-5-methylpyrimidin-4-yl)-N-(4-(6-ethoxypyrazin-2-yl)phenyl)-2-methylpropanamide], “+ (2-30 fold (+))”.
`CCOc1cncc(-c2ccc(C(=O)NC(CCOC)c3csc(NS(=O)(=O)C4CC4)n3)cc2)n1` (centres unmarked) [R90, N-(1-(2-(cyclopropanesulfon-amido)thiazol-4-yl)-3-methoxypropyl)-4-(6-ethoxy-pyrazin-2-yl)benzamide]: the “Selectivity (fold selectivity between CTPS1 and CTPS2)” value under setting [2] is “++ (>30-60 fold (++))”.
Consider `CCOc1cncc(-c2ccc(NC(=O)C3(c4ccnc(NS(=O)(=O)C5CC5)n4)CCC(F)(F)CC3)nc2)n1` [P242], for which the “Selectivity (fold selectivity between CTPS1 and CTPS2)” value under setting [3] is recorded as “+++ (>60 fold (+++))”.
With `CC(C)Oc1cncc(-c2ccc(NC(=O)Cc3ccnc(NS(=O)(=O)C4CC4)n3)cc2)n1` [P21, 2-(2-(cyclopropanesulfonamido)pyrimidin-4-yl)-N-(4-(6-isopropoxypyrazin-2-yl)phenyl)acetamide], the “Selectivity (fold selectivity between CTPS1 and CTPS2)” value under setting [1] is “++ (>30-60 fold (++))”.
On the same count and under the same terms, with `CCC(C(=O)Nc1ncc(-c2cncc(OC)n2)cc1F)c1ccnc(NS(=O)(=O)C2CC2)n1` (centres unmarked) [P158, 2-(2-(cyclopropanesulfonamido)pyrimidin-4-yl)-N-(3-fluoro-5-(6-methoxypyrazin-2-yl)pyridin-2-yl)butanamide] the entry was “+ (2-30 fold (+))”; with `CC(C)Oc1cncc(-c2ccc(NC(=O)C(C)(C)c3ccnc(NS(=O)(=O)C4CC4)n3)nc2)n1` [P9, 2-(2-(cyclopropanesulfonamido)pyrimidin-4-yl)-N-(5-(6-isopropoxypyrazin-2-yl)pyridin-2-yl)-2-methylpropanamide], “+++ (>60 fold (+++))”.
As to `COCCC(NC(=O)c1ccc(-c2cncc(C(F)(F)F)n2)cc1F)c1csc(NS(=O)(=O)C2CC2)n1` (centres unmarked) [R87, N-(1-(2-(cyclopropanesulfon-amido)thiazol-4-yl)-3-methoxypropyl)-2-fluoro-4-(6-(trifluoromethyl)pyrazin-2-yl)benzamide], the “Selectivity (fold selectivity between CTPS1 and CTPS2)” value under setting [2] was “++ (>30-60 fold (++))”.
In the case of `CCOc1cncc(-c2ccc(NC(=O)C(CC)c3cncc(NS(=O)(=O)C4CC4)n3)nc2)n1` (centres unmarked) [P201, 2-(6-(cyclopropanesulfonamido)pyrazin-2-yl)-N-(5-(6-ethoxypyrazin-2-yl)pyridin-2-yl)butanamide], under setting [1], the “Selectivity (fold selectivity between CTPS1 and CTPS2)” value is on record as “+++ (>60 fold (+++))”.
Consider `CCOc1cncc(-c2ccc(NC(=O)C3(c4ccnc(NS(=O)(=O)C5CC5)n4)CCC(O)CC3)nc2)n1` (single isomer, unassigned) [P227, 1-(2-(cydopropanesulfonamido)pyrimidin-4-yl)-N-(5-(6-ethoxypyrazin-2-yl)pyridin-2-yl)-4-hydroxycyclohexanecarboxamide], for which, under setting [3], the “Selectivity (fold selectivity between CTPS1 and CTPS2)” value was “+++ (>60 fold (+++))”.
Regarding `CCOc1cncc(-c2ccc(NC(=O)Cc3ccnc(NS(=O)(=O)C4CC4)n3)cc2)n1` [P18, 2-(2-(cyclopropanesulfonamido)pyrimidin-4-yl)-N-(4-(6-ethoxypyrazin-2-yl)phenyl)acetamide], under setting [1], the “Selectivity (fold selectivity between CTPS1 and CTPS2)” value is recorded as “++ (>30-60 fold (++))”.
Same read-out and setting: with `CCC(C(=O)Nc1ccc(-c2cncc(Cl)c2)cc1)c1ccnc(NS(=O)(=O)C2CC2)n1` (centres unmarked) [P1, N-(4-(5-Chloropyridin-3-yl)phenyl)-2-(2-(cyclopropanesulfonamido)pyrimidin-4-yl)butanamide] the entry was “+ (2-30 fold (+))”; with `CCOc1cncc(-c2ccc(NC(=O)C(C)(OC)c3cncc(NS(=O)(=O)C4CC4)n3)nc2)n1` (single isomer, unassigned) [P205b, 2-(6-(cyclopropanesulfonamido)pyrazin-2-yl)-N-(5-(6-ethoxypyrazin-2-yl)pyridin-2-yl)-2-methoxypropanamide], “++ (>30-60 fold (++))”.
For `CC(C)(NC(=O)c1ccc(-c2cncc(C(F)(F)F)n2)cc1)c1csc(NS(=O)(=O)C2CC2)n1` [R51, N-(2-(2-(cyclopropanesulfon-amido)thiazol-4-yl)propan-2-yl)-4-(6-(trifluoromethyl)pyrazin-2-yl)benzamide], the “Selectivity (fold selectivity between CTPS1 and CTPS2)” value under setting [2] is reported as “++ (>30-60 fold (++))”.
Take `CC(C)(C(=O)Nc1ccc(-c2cncc(C3CC3)n2)cc1F)c1ccnc(NS(=O)(=O)C2CC2)n1` [P128, 2-(2-(cyclopropanesulfonamido)pyrimidin-4-yl)-N-(4-(9-cyclopropylpyrazin-2-yl)-2-fluorophenyl)-2-methylpropanamide]: the “Selectivity (fold selectivity between CTPS1 and CTPS2)” value under setting [1] is “+ (2-30 fold (+))”.
The same measure, in the same setting: with `CCC(C(=O)Nc1ccc(-c2cncc(OC(C)C)n2)cn1)c1ccnc(NS(=O)(=O)C2CC2)n1` (centres unmarked) [P89, 2-(2-(cyclopropanesulfonamido)pyrimidin-4-yl)-N-(5-(6-isopropoxypyrazin-2-yl)pyridin-2-yl)butanamide] the entry was “+++ (>60 fold (+++))”.
